This note sets out measurements from patent US9938273B2 (Plexxikon Inc., priority 2015, dated 2018).

Structures are written as SMILES.

The IC50 is the midpoint of a concentration-inhibition curve.

In assay [1] the target is T1, BA/F3-FLT3-ITD + D835Y cells (Homo sapiens, UniProt P36888, D835Y, cells depend on it, form not given).
T1 sequence (P36888 1-993 D835Y): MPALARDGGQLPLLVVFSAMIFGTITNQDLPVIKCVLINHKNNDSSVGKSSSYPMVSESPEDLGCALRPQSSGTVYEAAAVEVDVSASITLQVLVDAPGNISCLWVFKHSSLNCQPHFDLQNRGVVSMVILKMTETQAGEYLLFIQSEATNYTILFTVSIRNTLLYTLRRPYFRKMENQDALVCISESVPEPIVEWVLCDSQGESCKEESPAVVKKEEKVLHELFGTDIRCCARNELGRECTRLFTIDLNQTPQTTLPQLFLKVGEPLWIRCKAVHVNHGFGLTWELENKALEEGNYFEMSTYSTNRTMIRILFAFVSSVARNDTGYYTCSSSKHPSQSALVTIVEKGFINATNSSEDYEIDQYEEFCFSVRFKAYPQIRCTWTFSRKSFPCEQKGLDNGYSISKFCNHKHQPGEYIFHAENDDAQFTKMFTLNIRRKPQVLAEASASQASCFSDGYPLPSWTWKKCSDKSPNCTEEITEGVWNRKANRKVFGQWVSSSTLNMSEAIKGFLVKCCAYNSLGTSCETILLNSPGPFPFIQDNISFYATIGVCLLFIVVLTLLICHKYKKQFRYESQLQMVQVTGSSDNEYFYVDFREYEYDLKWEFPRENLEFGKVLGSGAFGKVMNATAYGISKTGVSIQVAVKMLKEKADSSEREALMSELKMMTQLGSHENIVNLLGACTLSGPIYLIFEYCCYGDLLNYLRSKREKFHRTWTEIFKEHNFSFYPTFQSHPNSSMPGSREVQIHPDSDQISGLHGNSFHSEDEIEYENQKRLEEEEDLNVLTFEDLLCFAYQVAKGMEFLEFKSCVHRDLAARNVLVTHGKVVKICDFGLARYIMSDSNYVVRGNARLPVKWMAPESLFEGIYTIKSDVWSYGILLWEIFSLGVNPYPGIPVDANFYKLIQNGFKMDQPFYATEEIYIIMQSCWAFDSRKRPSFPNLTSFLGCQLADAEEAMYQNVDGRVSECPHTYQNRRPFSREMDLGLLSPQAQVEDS
The assay can be described thus: Cell proliferation assay (CellTiter-Glo), engineered BA/F3 cells. Type of assay: cell-based, murine. Conditions: BaF3 FLT3 ITD/D835Y cells, 3d-Growth; read-out: BaF3_FLT3 ITD/D835Y 3d-Growth: IC50. The text has this: The FLT3 inhibitors may be assessed using the MOLM-14, Acute Myeloid Leukemia cell line that endogenously expresses FLT3 ITD or derivatives of the human FLT3 AML cell line which acquired the D835Y (activation loop) of F691L (gatekeeper) mutation after selection in escalating doses of the FLT3 Inhibitor AC220. FLT3 inhibitors may also be assessed using cells that are engineered to express mutant FLT3. For engineered cells, murine Ba/F3 cells were transfected with full-length FLT3 ITD/D835Y mutations. The parental BA/F3 cells are dependent upon Interleukin-3 (IL-3) for survival, and introduction of the FLT3 constructs rendered these cells dependent upon FLT3 kinase activity when cultured in the absences of IL-3. Engineered BA/F3 cell growth assays can be performed in either the […] of IL-3, to assess the compound inhibition of FLT3 or to detect the presence of off-target activity, respectively. Inhibitors of FLT3 kinase activity reduce or eliminate the FLT3 oncogenic signaling, resulting in reduced cell proliferation. This inhibition is measured as a function of compound concentration to asses IC50 values.
Cell lines used in proliferation assays are as follows in Table 3:
Cells were seeded at 1×10^4 cells per well of a 96 well cell culture plate in 50 μl of cell culture medium. Compounds were dissolved in DMSO, typically at a concentration of 0.5 mM and were serially diluted 1:3 for a total of eight points and added to the cells to final concentrations of […], 0.0041, 0.0014 and 0.00046 μM in 100 μl cell culture medium (final concentration 0.2% DMSO). […] The cells were incubated at 37° C., 5% CO2 for three days. CellTiter-Glo Buffer (Promega Cell Viability Assay catalog #G7573) and substrate were equilibrated to room temperature, and enzyme/substrate Recombinant Firefly Luciferase/Beetle Luciferin was reconstituted. The cell plates were equilibrated to room temperature for 30 minutes, then lysed by addition of an equivalent volume of the Celltiter-Glo Reagent. The plate was mixed for 10 minutes on a plate shaker to lyse the cells. The plates were read on a Tecan M1000 using Luminescence protocol modified to read 0.1 s per well. The luminescence reading assesses the ATP content, which correlates directly with cell number such that the reading as a function of compound concentration was used to determine the IC50 value.
On the technique in general: Cellular ATP, detected with luciferase, serves as a proxy for viable cell number.

A further assay addresses T2, c-KIT (Homo sapiens, UniProt P10721).
T2 construct: purchased Millipore 14-559K
The assay can be described thus: AlphaScreen kinase assay with recombinant enzyme, c-KIT. It is filed as biochemical. As to conditions: 100ATP, 8pt, GMean. Here is the method:
In order to determine the effect of compounds on FLT3 catalytic activity, kinase assays using recombinant enzymes and AlphaScreen® technology have been established. The catalytic activity of c-kit activity was also measured to determine selectivity of the compounds. When the kinases are catalytically active, they phosphorylate a biotinylated peptide substrate on tyrosine residues. Using AlphaScreen® technology, the ability of the compounds to affect the catalytic activity of the kinases can be measured quantitatively. The peptide substrate is immobilized by the AlphaScreen® Streptavidin Donor beads and, upon phosphorylation by a tyrosine kinase, can bind to AlphaScreen® Anti-Phosphotyrosine (PY20) Acceptor beads. Upon excitation of these beads with laser light at 680 nm, singlet oxygen is produced. This singlet oxygen is rapidly quenched, unless the AlphaScreen® Anti-Phosphotyrosine (PY20) Acceptor beads are in close proximity, in which case a proximity signal can be measured at 580 nm. In the presence of catalytic activity, there is a very strong proximity signal. Selective kinase inhibitors affect a decrease in this proximity signal through a decrease in tyrosine phosphorylation of the peptide substrate.
The assay was performed as summarized below.
Poly (Glu4-Tyr) Peptide, biotin conjugate [Biotin-GG(EEEEY)10EE] (SEQ ID NO: 4)
Final concentration=30 nM
Final concentration for IC50 determination=10 μM (FLT3-D835Y or FLT3-ITD) or 100 μM (c-KIT)
AlphaScreen® Phosphotyrosine (PY20) Assay Kit
Final concentration=10 μg/mL
Dilute compounds in DMSO to 20× final concentration.
Add 1 μl of compound to each well of 384 well reaction plate (Perkin Elmer #6005359).
Mix enzyme and Poly (Glu4-Tyr) Peptide substrate at 1.33× final concentration in assay buffer.
Mix ATP at 5× final concentration in assay buffer.
Add 15 μL enzyme/substrate mixture to the reaction plate.
Add 4 μL of ATP to the reaction plate.
Mix Streptavidin Donor beads at 6× final concentration in Stop/Detection buffer.
Add 5 μL Streptavidin Donor beads to the reaction plate. Centrifuge 1 minute, shake to mix, and incubate at room temperature for 20 minutes.
Mix Anti-Phosphotyrosine (PY20) Acceptor beads at 6× final concentration in Stop/Detection buffer.
Add 5 μL Anti-Phosphotyrosine (PY20) beads to the reaction plate.
Centrifuge 1 minute, shake to mix, and incubate at room temperature for 60 minutes.
Read plate on Wallac EnVision™ 2103 Multilabel Reader.
Background: In Alpha technology, singlet oxygen from a donor bead excites a nearby acceptor bead.

T2 sequence (P10721 26-976): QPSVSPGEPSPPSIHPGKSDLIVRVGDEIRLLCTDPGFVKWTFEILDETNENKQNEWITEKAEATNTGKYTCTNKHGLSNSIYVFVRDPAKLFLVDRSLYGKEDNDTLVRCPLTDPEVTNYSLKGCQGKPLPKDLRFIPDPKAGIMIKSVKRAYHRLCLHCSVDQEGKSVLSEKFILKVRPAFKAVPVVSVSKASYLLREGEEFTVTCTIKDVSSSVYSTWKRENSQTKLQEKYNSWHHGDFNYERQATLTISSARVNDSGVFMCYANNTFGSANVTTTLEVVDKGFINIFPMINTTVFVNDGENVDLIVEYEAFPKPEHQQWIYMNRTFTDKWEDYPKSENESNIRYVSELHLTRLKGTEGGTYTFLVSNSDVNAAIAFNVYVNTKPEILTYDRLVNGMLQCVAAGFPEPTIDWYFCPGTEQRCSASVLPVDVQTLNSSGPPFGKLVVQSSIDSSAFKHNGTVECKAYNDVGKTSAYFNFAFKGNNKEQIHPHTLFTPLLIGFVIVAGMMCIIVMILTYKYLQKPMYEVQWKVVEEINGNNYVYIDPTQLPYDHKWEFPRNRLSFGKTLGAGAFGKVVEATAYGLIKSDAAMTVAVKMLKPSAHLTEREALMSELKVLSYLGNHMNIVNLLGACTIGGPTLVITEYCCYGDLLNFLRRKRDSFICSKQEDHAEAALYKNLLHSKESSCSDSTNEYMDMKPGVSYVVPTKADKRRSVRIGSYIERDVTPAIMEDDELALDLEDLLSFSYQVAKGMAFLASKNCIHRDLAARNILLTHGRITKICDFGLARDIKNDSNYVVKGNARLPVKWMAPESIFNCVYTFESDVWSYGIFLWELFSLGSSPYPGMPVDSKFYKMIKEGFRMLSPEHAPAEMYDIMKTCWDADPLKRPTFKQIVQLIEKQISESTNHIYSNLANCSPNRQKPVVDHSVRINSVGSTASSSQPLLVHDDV

For `N#CCCNC(=O)c1cccc(-c2cnc3[nH]c(-c4ccccc4)cc3c2)n1` [Compound P-0099, N-(2-cyanoethyl)-6-(2-phenyl-1H-pyrrolo[2,3-b]pyridin-5-yl)pyridine-2-carboxamide], the GI50 in assay [1] was in the range of 0.0001 to 10 µM. Further, on c-KIT, the IC50 is 50 to 100 µM. Turning to `O=C(c1cccc(-c2cnc3[nH]c(-c4cnn(CC(F)(F)F)c4)cc3c2)n1)N1CCC(F)(F)C1` [Compound P-0112, (3,3-difluoropyrrolidin-1-yl)-[6-[2-[1-(2,2,2-trifluoroethyl)pyrazol-4-yl]-1H-pyrrolo[2,3-b]pyridin-5-yl]-2-pyridyl]methanone], in assay [1], the GI50 was in the range of 0.0001 to 10 µM. The IC50 at c-KIT lay within 10 to 50 µM. Consider `N#CCCNC(=O)c1cccc(-c2cnc3[nH]c(-c4ccccc4)c(Cl)c3c2)n1` [Compound P-0125, 6-(3-chloro-2-phenyl-1H-pyrrolo[2,3-b]pyridin-5-yl)-N-(2-cyanoethyl)pyridine-2-carboxamide], for which, in assay [1], the GI50 was 0.0001 to 10 µM. For `N#CC1CCN(S(=O)(=O)c2cccc(-c3cnc4[nH]c(-c5ccccc5)cc4c3)n2)C1` (stereo not shown) [Compound P-0121, 1-[[6-(2-phenyl-1H-pyrrolo[2,3-b]pyridin-5-yl)-2-pyridyl]sulfonyl]pyrrolidine-3-carbonitrile], the GI50 in assay [1] was in the range of 0.0001 to 10 µM.

As for `O=C(c1cccc(-c2cnc3[nH]c(-c4ccccc4)cc3c2)n1)N1CCC(F)(F)C1` [Compound P-0093, (3,3-difluoropyrrolidin-1-yl)-[6-(2-phenyl-1H-pyrrolo[2,3-b]pyridin-5-yl)-2-pyridyl]methanone], the GI50 in assay [1] was in the range of 0.0001 to 10 µM. Also, the IC50 on c-KIT is 50 to 100 µM.

For `N#CC1(F)CCN(C(=O)c2cccc(-c3cnc4[nH]c(-c5ccccc5)cc4c3)n2)C1` (stereo not shown) [Compound P-0115, 3-fluoro-1-[6-(2-phenyl-1H-pyrrolo[2,3-b]pyridin-5-yl)pyridine-2-carbonyl]pyrrolidine-3-carbonitrile], the GI50 in assay [1] fell in the range of 0.0001 to 10 µM. Moreover, on c-KIT, the IC50 lay within 50 to 100 µM.

Regarding `O=S(=O)(NC1CC1)c1cccc(-c2cnc3[nH]c(-c4ccccc4)cc3c2)n1` [Compound P-0109, N-cyclopropyl-6-(2-phenyl-1H-pyrrolo[2,3-b]pyridin-5-yl)pyridine-2-sulfonamide], in assay [1], the GI50 fell in the range of 0.0001 to 10 µM. In addition, the IC50 at c-KIT fell in the range of 50 to 100 µM. Take `N#CC1(NC(=O)c2cccc(-c3cnc4[nH]c(-c5ccccc5)cc4c3)n2)CC1` [Compound P-0111, N-(1-cyanocyclopropyl)-6-(2-phenyl-1H-pyrrolo[2.3-b]pyridin-5-yl]pyridine-2-carboxamide]: in assay [1], the GI50 was 0.0001 to 10 µM.

As for `CC(C)(C#N)CNC(=O)c1cccc(-c2cnc3[nH]c(-c4ccccc4)cc3c2)n1` [Compound P-0100, N-(2-cyano-2-methyl-propyl)-6-(2-phenyl-1H-pyrrolo[2,3-b]pyridin-5-yl)pyridine-2-carboxamide], the GI50 in assay [1] was 0.0001 to 10 µM. For the same molecule, the IC50 at c-KIT was 10 to 50 µM. In the case of `CC(C)(C#N)NC(=O)c1cccc(-c2cnc3[nH]c(-c4ccccc4)cc3c2)n1` [Compound P-0118, N-(1-cyano-1-methyl-ethyl)-6-(2-phenyl-1H-pyrrolo[2,3-b]pyridin-5-yl)pyridine-2-carboxamide], in assay [1], the GI50 lay within 0.0001 to 10 µM. Moreover, at c-KIT, the IC50 was in the range of 50 to 100 µM.

Consider `CNC(=O)C1CCN(C(=O)c2cccc(-c3cnc4[nH]c(-c5ccccc5)cc4c3)n2)C1` (stereo not shown) [Compound P-0096, N-methyl-1-[6-(2-phenyl-1H-pyrrolo[2,3-b]pyridin-5-yl)pyridine-2-carbonyl]pyrrolidine-3-carboxamide], for which, in assay [1], the GI50 lay within 0.0001 to 10 µM. The IC50 on c-KIT was 10 to 50 µM. On to `CC(C)(C#N)CNC(=O)c1cccc(-c2cnc3[nH]c(-c4ccccc4)c(I)c3c2)n1` [Compound P-0127, N-(2-cyano-2-methyl-propyl)-6-(3-iodo-2-phenyl-1H-pyrrolo[2,3-b]pyridin-5-yl)pyridine-2-carboxamide], for which the GI50 in assay [1] was 0.0001 to 10 µM.

Take `N#CC1CCN(C(=O)c2cccc(-c3cnc4[nH]c(C5=CCCCC5)cc4c3)n2)C1` (stereo not shown) [Compound P-0120, 1-[6-[2-(cyclohexen-1-yl)-1H-pyrrolo[2,3-b]pyridin-5-yl]pyridine-2-carbonyl]pyrrolidine-3-carbonitrile]: the GI50 in assay [1] fell in the range of 0.0001 to 10 µM. Besides, on c-KIT, the IC50 lay in the range of 0.0001 to 10 µM.

In the case of `N#C[C@@H]1CCN(C(=O)c2cccc(-c3cnc4[nH]c(-c5ccccc5)cc4c3)n2)C1` [Compound P-0122, (3R)-1-[6-(2-phenyl-1H-pyrrolo[2,3-b]pyridin-5-yl)pyridine-2-carbonyl]pyrrolidine-3-carbonitrile], the GI50 in assay [1] lay within 0.0001 to 10 µM. With `CC(C)(C#N)CNC(=O)c1cccc(-c2cnc3[nH]c(-c4ccccc4)c(Br)c3c2)n1` [Compound P-0126, 6-(3-bromo-2-phenyl-1H-pyrrolo[2,3-b]pyridin-5-yl)-N-(2-cyano-2-methyl-propyl)pyridine-2-carboxamide], the GI50 in assay [1] was 0.0001 to 10 µM. `CC(C)(C#N)NC(=O)c1cccc(-c2cnc3[nH]c(-c4cnn(C(F)F)c4)cc3c2)n1` [Compound P-0164, N-(2-cyanopropan-2-yl)-6-(2-(1-(difluoromethyl)-1H-pyrazol-4-yl)-1H-pyrrolo[2,3-b]pyridin-5-yl)picolinamide]: at c-KIT, the IC50 is 50 to 100 µM.
